This is an account of results in patent publication US8697694B2, “Substituted pyridine and pyrimidine derivatives and their use in treating viral infections” (priority 2008, dated 2014).

A value given as a limit tells only on which side of the number the result lay.

The subject of one assay is HCV replicon cells. The assay is described as follows: Cell-based HCV replicon assay (replicon RNA level by real time PCR, Taqman). Particulars: HCV replicon cells, harvested day 3, replicon RNA by real time PCR; reported as range class; read-out: EC90 (μM) range. The method, then:
Assays Cell-Based HCV Replicon Assay
To measure cell-based anti-HCV activity of the compounds of the present invention, replicon cells were seeded at 5000 cells/well in 96-well collagen I-coated Nunc plates in the presence of the compound of the invention. Various concentrations of a compound of the invention, typically in 10 serial 2-fold dilutions, were added to the assay mixture, the starting concentration of the compound ranging from 25 μM to 1 μM. The final concentration of DMSO was 0.5%, fetal bovine serum was 10%, in the assay media. Cells were harvested on day 3 by the addition of 1× cell lysis buffer (Ambion cat #8721). The replicon RNA level was measured using real time PCR (Taqman assay). The amplicon was located in 5B. The PCR primers were: 5B.2F, ATGGACAGGCGCCCTGA (SEQ. ID NO. 1); 5B.2R, […] (SEQ. ID NO. 2); the probe sequence was FAM-labeled CACGCCATGCGCTGCGG (SEQ. ID NO. 3). GAPDH RNA was used as endogenous control and was amplified in the same reaction as NS5B (multiplex PCR) using primers and VIC-labeled probe recommended by the manufacturer (PE Applied Biosystem). The real-time RT-PCR reactions were run on ABI PRISM 7900HT Sequence Detection System using the following program: 48′C for 30 min, 95° C. for 10 min, 40 cycles of 95° C. for 15 sec, 60° C. for 1 min. The ΔCT values (CT5B-CTGAPDH) were plotted against the concentration of test compound and fitted to the sigmoid dose-response model using GraphPad PRISM software. EC50 was defined as the concentration of inhibitor necessary to achieve ΔCT=1 over the projected baseline; EC90 the concentration necessary to achieve ΔCT=3.2 over the baseline. Alternatively, to quantitate the absolute amount of replicon RNA, a standard curve was established by including serially diluted T7 transcripts of replicon RNA in the Taqman assay. All Taqman reagents were from PE Applied Biosystems. Such an assay procedure was described in detail in e.g. Malcolm et al., Antimicrobial Agents and Chemotherapy 50: 1013-1020 (2006).
HCV Replicon assay data for compounds of the invention that were tested was obtained using the above method. Calculated EC90 values are reported for each compound in Table I as a falling within the following ranges: […]
(Replicon systems follow genome replication, usually without infectious particles.)
By EC90 is commonly meant the concentration needed for an effect of 90%. As for `COc1cc2cc(-c3c(Cl)nc(N(C)C)nc3N[C@@H]3C[C@H](CO)[C@@H](O)[C@H]3O)oc2c(C)n1` [Example 12], the EC90 lay within 0.5 to 5 µM.

Regarding `COc1cc2cc(-c3c(Cl)nc(N(C)C)nc3N[C@@H]3C[C@H](CO)[C@@H](O)[C@H]3O)oc2c(C)n1` [Example 13], the EC90 was over 5 µM.

Still in this assay, the particulars now being: HCV replicon cells, replicon RNA level by real time PCR, harvested day 3; read-out: EC90 (μM) range.
As to `Cc1nc(N[C@H](C)c2ccc(OC(F)(F)F)cc2)nc(N[C@@H]2C[C@H](C(C)O)[C@@H](O)[C@H]2O)c1-c1nc2ccccc2s1` (single isomer, unassigned) [Example 1646], the EC90 lay within 0.5 to 5 µM.

As to `Cc1nc(NCC2CC2)nc(N[C@@H]2C[C@H](C(C)O)[C@@H](O)[C@H]2O)c1-c1nc2ccccc2s1` (single isomer, unassigned) [Example 1647], the EC90 was 0.5 to 5 µM.

Turning to `Cc1nc(NCC(F)(F)F)nc(N[C@@H]2C[C@H](C(C)O)[C@@H](O)[C@H]2O)c1-c1nc2ccccc2s1` (single isomer, unassigned) [Example 1648], the concentration for an effect of 90% (EC90) was in the range of 0.5 to 5 µM.

Still in this assay, the particulars now being: Hepatitis C virus, 72 h, HCV replicon cells, harvested day 3, replicon RNA by real time PCR; given as number; read-out: EC90 (μM) range.
Turning to `CCOc1cc2cc(-c3c(C)nc(NCc4nccs4)nc3N[C@@H]3C[C@H](CO)[C@@H](O)[C@H]3O)oc2c(C)n1` [Example 24], the EC90 was found to be 0.02 µM.

Regarding `COCCNc1nc(C)c(-c2cc3cc(OC)ncc3o2)c(N[C@@H]2C[C@H](CO)[C@@H](O)[C@H]2O)n1` [Example 25], the EC90 worked out at 0.8 µM.

For the compound `CCOc1cc2cc(-c3c(C)nc(NC(C)(C)CC)nc3N[C@@H]3C[C@H](CO)[C@@H](O)[C@H]3O)oc2c(C)n1` [Example 26], the 90% effect concentration (EC90) stood at 0.5 µM.

With `CCOc1cc2cc(-c3c(C)nc(NCC(C)(C)C)nc3N[C@@H]3C[C@H](CO)[C@@H](O)[C@H]3O)oc2c(C)n1` [Example 27], the 90% effect concentration (EC90) turned out to be 0.35 µM.

Turning to `CCOc1cc2cc(-c3c(C)nc(NC)nc3N[C@@H]3C[C@H](CO)[C@@H](O)[C@H]3O)oc2c(C)n1` [Example 28], the EC90 was 0.45 µM.

As for `CCOc1cc2cc(-c3c(C)nc(NCC(F)(F)F)nc3N[C@@H]3C[C@H](CO)[C@@H](O)[C@H]3O)oc2c(C)n1` [Example 29], the EC90 is 0.1 µM.

Consider `CCOc1cc2cc(-c3c(C)nc(NCC4CC4)nc3N[C@@H]3C[C@H](CO)[C@@H](O)[C@H]3O)oc2c(C)n1` [Example 30], for which the EC90 was determined as 0.14 µM.

Take `CCOc1cc2cc(-c3c(C)nc(NC(C)C)nc3N[C@@H]3C[C@H](CO)[C@@H](O)[C@H]3O)oc2c(C)n1` [Example 32]: the EC90 was found to be 0.95 µM.

As to `CCCOc1cc2cc(-c3c(C)nc(NCC(F)(F)F)nc3N[C@@H]3C[C@H](CO)[C@@H](O)[C@H]3O)oc2c(C)n1` [Example 34], the EC90 amounted to 0.1 µM.

As to `CCCOc1cc2cc(-c3c(C)nc(NCCOC)nc3N[C@@H]3C[C@H](CO)[C@@H](O)[C@H]3O)oc2c(C)n1` [Example 35], the EC90 came to 0.1 µM.

In the case of `CCOc1cc2cc(-c3c(C)nc(NCc4cc(OC)cc(OC)c4)nc3N[C@@H]3C[C@H](CO)[C@@H](O)[C@H]3O)oc2c(C)n1` [Example 36], the EC90 came to 0.01 µM.

`COCCNc1nc(C)c(-c2cc3cc(OC(C)C)nc(C)c3o2)c(N[C@@H]2C[C@H](CO)[C@@H](O)[C@H]2O)n1` [Example 37]: the EC90 was 0.3 µM.

On to `CCCOc1cc2cc(-c3c(C)nc(NCC4CC4)nc3N[C@@H]3C[C@H](CO)[C@@H](O)[C@H]3O)oc2c(C)n1` [Example 38], for which the EC90 worked out at 0.25 µM.

For `Cc1nc(NCC2CC2)nc(N[C@@H]2C[C@H](CO)[C@@H](O)[C@H]2O)c1-c1cc2cc(OC(C)C)nc(C)c2o1` [Example 39], the EC90 turned out to be 0.1 µM.

For `CCOc1cc2cc(-c3c(C)nc(N[C@H](C)c4ccc(C)cc4)nc3N[C@@H]3C[C@H](CO)[C@@H](O)[C@H]3O)oc2c(C)n1` [Example 40], the EC90 came out at 0.15 µM.

As for `CCOc1cc2cc(-c3c(C)nc(N[C@H](C)C4CC4)nc3N[C@@H]3C[C@H](CO)[C@@H](O)[C@H]3O)oc2c(C)n1` [Example 41], the EC90 worked out at 0.2 µM.

Consider `Cc1nc(NCC2CC2)nc(N[C@@H]2C[C@H](CO)[C@@H](O)[C@H]2O)c1-c1cc2cc(OCC3CC3)nc(C)c2o1` [Example 42], for which the EC90 is 0.3 µM.

Regarding `CCC(CC)Oc1cc2cc(-c3c(C)nc(NCC4CC4)nc3N[C@@H]3C[C@H](CO)[C@@H](O)[C@H]3O)oc2c(C)n1` [Example 44], the EC90 was over 25 µM.

Staying with this assay, now noted: Hepatitis C virus, 72 h, HCV replicon cells, harvested day 3, replicon RNA by real time PCR; reported as range class; read-out: EC90 (μM) range.
`Nc1nc(Cl)c(-c2ccccc2)c(N[C@@H]2C[C@H](CO)[C@@H](O)[C@H]2O)n1` [Example 5]: the EC90 was over 5 µM.

Take `Nc1nc(Cl)c(-c2cc3cnccc3o2)c(N[C@@H]2C[C@H](CO)[C@@H](O)[C@H]2O)n1` [Example 8]: the EC90 is 0.5 to 5 µM.

`Nc1nc(Cl)c(-c2cc3ccncc3o2)c(N[C@@H]2C[C@H](CO)[C@@H](O)[C@H]2O)n1` [Example 9]: the EC90 was under 0.5 µM.

Regarding `COc1cc2cc(-c3c(Cl)nc(N)nc3N[C@@H]3C[C@H](COC(=O)C(F)(F)F)[C@@H](O)[C@H]3O)oc2cn1` [Example 10], the EC90 is under 0.5 µM.

With `COc1cc2cc(-c3c(Cl)nc(N)nc3N[C@@H]3C[C@H](CO)[C@@H](O)[C@H]3O)oc2cn1` [Example 11], the EC90 is under 0.5 µM.

As to `COc1cc2cc(-c3c(Cl)nc(N)nc3N[C@@H]3C[C@H](CO)[C@@H](O)[C@H]3O)oc2c(C)n1` [Example 14], the EC90 was under 0.5 µM.

For `CNc1nc(Cl)c(-c2cc3cc(OC)nc(C)c3o2)c(N[C@@H]2C[C@H](CO)[C@@H](O)[C@H]2O)n1` [Example 15], the EC90 is under 0.5 µM.

`Cc1ccc2oc(-c3c(Cl)nc(N)nc3N[C@@H]3C[C@H](CO)[C@@H](O)[C@H]3O)cc2n1` [Example 16]: the EC90 is 0.5 to 5 µM.

On to `CNc1nc(C)c(-c2cc3cc(OC)nc(C)c3o2)c(N[C@@H]2C[C@H](CO)[C@@H](O)[C@H]2O)n1` [Example 17], for which the EC90 was under 0.5 µM.

In the case of `COCCNc1nc(Cl)c(-c2cc3cc(OC)nc(C)c3o2)c(N[C@@H]2C[C@H](CO)[C@@H](O)[C@H]2O)n1` [Example 18], the EC90 was under 0.5 µM.

With `CCOc1cc2cc(-c3c(Cl)nc(NCC(F)(F)F)nc3N[C@@H]3C[C@H](CO)[C@@H](O)[C@H]3O)oc2c(C)n1` [Example 20], the EC90 is under 0.5 µM.

As to `CCOc1cc2cc(-c3c(Cl)nc(NCCOC)nc3N[C@@H]3C[C@H](CO)[C@@H](O)[C@H]3O)oc2c(C)n1` [Example 21], the EC90 was under 0.5 µM.

With `COc1cc2cc(-c3c(Cl)nc(NCC(F)(F)F)nc3N[C@@H]3C[C@H](CO)[C@@H](O)[C@H]3O)oc2cn1` [Example 22], the EC90 is under 0.5 µM.

`CCOc1cc2cc(-c3c(C)nc(NCCOC)nc3N[C@@H]3C[C@H](CO)[C@@H](O)[C@H]3O)oc2c(C)n1` [Example 31]: the EC90 was under 0.5 µM.

Turning to `CCOc1cc2cc(-c3c(C)nc(Nc4ccccc4)nc3N[C@@H]3C[C@H](CO)[C@@H](O)[C@H]3O)oc2c(C)n1` [Example 33], the EC90 is over 5 µM.

In the case of `Cc1nc(NCC2CC2)nc(N[C@@H]2C[C@H](CO)[C@@H](O)[C@H]2O)c1-c1cc2cc(-c3cccs3)nc(C)c2o1` [Example 43], the EC90 was over 5 µM.

The assay is the same for the next values; noted with them: Hepatitis C virus, 72 h, HCV replicon cells, harvested on day 3, replicon RNA by real time PCR; calculated EC90 reported as range class; read-out: EC90 (μM) range.
Consider `Cc1nc(NCc2cccs2)nc(N[C@@H]2CCC[C@H]2O)c1-c1nc2ccccc2s1` (racemic) [Example 333], for which the EC90 is under 0.5 µM.

As for `Cc1nc(NCc2cccs2)nc(N[C@@H]2CCCC2=O)c1-c1nc2ccccc2s1` (racemic) [Example 338], the EC90 was under 0.5 µM.

The same assay, now with this note: Hepatitis C virus, 72 h, HCV replicon cells, replicon RNA level by real time PCR (Taqman), harvested on day 3; calculated EC90 reported as range class; read-out: EC90 (μM) range.
For the compound `CCNc1nc(C)c(-c2nc3ccccc3s2)c(N[C@@H]2CC(C(C)(F)F)[C@@H](O)[C@H]2O)n1` (single isomer, unassigned) [Example 1074], the EC90 is 0.5 to 5 µM.

Staying with this assay, now noted: Hepatitis C virus, 72 h, HCV replicon cells, replicon RNA level by real time PCR, harvested day 3; read-out: EC90 (μM) range.
`Cc1nc(NCC(F)(F)F)nc(N[C@@H]2C[C@H](C(C)O)[C@@H](O)[C@H]2O)c1-c1nc2ccccc2s1` (single isomer, unassigned) [Example 1643]: the EC90 was under 0.5 µM.

For `Cc1nc(NCC2CC2)nc(N[C@@H]2C[C@H](C(C)O)[C@@H](O)[C@H]2O)c1-c1nc2ccccc2s1` (single isomer, unassigned) [Example 1644], the EC90 is under 0.5 µM.

Regarding `Cc1nc(N[C@H](C)c2ccc(OC(F)(F)F)cc2)nc(N[C@@H]2C[C@H](C(C)O)[C@@H](O)[C@H]2O)c1-c1nc2ccccc2s1` (single isomer, unassigned) [Example 1645], the EC90 was 0.5 to 5 µM.
